Tests used:
Assay type in all cases: cell-based, human
[1] = system: NCI/ADR-RES; experiment: NCI 60 panel growth inhibition (SRB), ovarian cancer; details: 10 μM
Summary of the method: (§1)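 Cells were plated at 5000–40,000/well and drug was added after 24 h at five concentrations (10-fold or ½ log dilutions), with TCA-fixed time-zero plates as reference. Growth was measured by SRB absorbance, percentage growth was computed against time-zero and control, and TGI was taken at Ti = Tz.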

[2] = system: OVCAR-4; experiment: as above; details: OVCAR-4, 10 μM
Summary of the method: as §1

[3] = system: SK-OV-3; experiment: as above; details: SK-OV-3, 10 μM
Summary of the method: as §1

[4] = system: OVCAR-8; experiment: as above; details: OVCAR-8, 10 μM
Summary of the method: as §1

[5] = system: OVCAR-3; experiment: as above; details: OVCAR-3, 10 μM
Summary of the method: as §1

[6] = system: IGROV1; experiment: as above; details: IGROV1, 10 μM
Summary of the method: as §1

[7] = system: OVCAR-5; experiment: as above; details: OVCAR-5, 10 μM
Summary of the method: as §1

[8] = system: NCI 60 cancer cell line panel; experiment: NCI 60 panel growth inhibition (SRB), whole panel; details: mean over NCI 60 panel, 10 μM
Summary of the method: as §1

[9] = system: HCT-15; experiment: NCI 60 panel growth inhibition (SRB), colon cancer; details: HCT-15, 10 μM
Summary of the method: as §1

[10] = system: KM12; experiment: NCI 60 panel growth inhibition (SRB), colon cancer; details: KM12, 10 μM
Summary of the method: as §1

[11] = system: SW-620; experiment: NCI 60 panel growth inhibition (SRB), colon cancer; details: SW-620, 10 μM
Summary of the method: as §1

[12] = system: COLO 205; experiment: NCI 60 panel growth inhibition (SRB), colon cancer; details: COLO 205, 10 μM
Summary of the method: as §1

[13] = system: HCT-116; experiment: NCI 60 panel growth inhibition (SRB), colon cancer; details: HCT-116, 10 μM
Summary of the method: as §1

[14] = system: HCC-2998; experiment: NCI 60 panel growth inhibition (SRB), colon cancer; details: HCC-2998, 10 μM
Summary of the method: as §1

[15] = system: RPMI-8226; experiment: NCI 60 panel growth inhibition (SRB), leukemia; details: RPMI-8226, 10 μM
Summary of the method: as §1

[16] = system: MOLT-4; experiment: NCI 60 panel growth inhibition (SRB), leukemia; details: MOLT-4, 10 μM
Summary of the method: as §1

[17] = system: SR; experiment: NCI 60 panel growth inhibition (SRB), leukemia; details: 10 μM
Summary of the method: as §1

[18] = system: HL-60(TB); experiment: NCI 60 panel growth inhibition (SRB), leukemia; details: HL-60(TB), 10 μM
Summary of the method: as §1

[19] = system: CCRF-CEM; experiment: NCI 60 panel growth inhibition (SRB), leukemia; details: 10 μM
Summary of the method: as §1

[20] = system: K-562; experiment: NCI 60 panel growth inhibition (SRB), leukemia; details: K-562, 10 μM
Summary of the method: as §1

[21] = system: SNB-75; experiment: NCI 60 panel growth inhibition (SRB), CNS cancer; details: SNB-75, 10 μM
Summary of the method: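 Two-stage NCI process: single-dose screen, then five-concentration testing of selected compounds. Growth relative to time-zero and untreated controls was derived from SRB absorbance, and TGI from the concentration giving Ti = Tz.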

[22] = system: SF-268; experiment: NCI 60 panel growth inhibition (SRB), CNS cancer; details: SF-268, 10 μM
Summary of the method: as §1

[23] = system: SNB-19; experiment: NCI 60 panel growth inhibition (SRB), CNS cancer; details: SNB-19, 10 μM
Summary of the method: as §1

[24] = system: SF-539; experiment: NCI 60 panel growth inhibition (SRB), CNS cancer; details: SF-539, 10 μM
Summary of the method: as §1

[25] = system: SF-295; experiment: NCI 60 panel growth inhibition (SRB), CNS cancer; details: SF-295, 10 μM
Summary of the method: as §1

[26] = system: NCI-H322M; experiment: NCI 60 panel growth inhibition (SRB), non-small cell lung cancer; details: 10 μM
Summary of the method: as §1

[27] = system: NCI-H226; experiment: as above; details: NCI-H226, 10 μM
Summary of the method: as §1

[28] = system: A549/ATCC; experiment: as above; details: 10 μM
Summary of the method: as §1

[29] = system: NCI-H460; experiment: as above; details: NCI-H460, 10 μM
Summary of the method: as §1

[30] = system: NCI-H23; experiment: as above; details: NCI-H23, 10 μM
Summary of the method: as §1

[31] = system: HOP-62; experiment: as above; details: HOP-62, 10 μM
Summary of the method: as §1

[32] = system: EKVX; experiment: as above; details: 10 μM
Summary of the method: as §1

[33] = system: NCI-H522; experiment: as above; details: NCI-H522, 10 μM
Summary of the method: as §1

[34] = system: HOP-92; experiment: as above; details: HOP-92, 10 μM
Summary of the method: as §1

SMILES: CNC(=O)c1nn(C)c2c1C(C)(C)Cc1cnc(Nc3ccc(N4CCN(C)CC4)cc3)nc1-2 [Milciclib, reference compound]
- GI% [1]: 90.10%
- GI% [2]: 87.10%
- GI% [3]: 116.90%
- GI% [4]: 91.10%
- GI% [5]: 79.30%
- GI% [6]: 97.50%
- GI% [7]: 90.90%
- Mean GI% [8]: > 100%
- Mean GI% ([8]; listed as milciclib): more than 100%
- GI% [9]: 96.9%
- GI% [10]: 99.4%
- GI% [11]: 88.5%
- GI% [12]: 180.1%
- GI% [13]: 99.8%
- GI% [14]: 89.6%
- GI% [15]: 99.60%
- GI% [16]: 97.70%
- GI% [17]: 101.8%
- GI% [18]: 127.0%
- GI% [19]: 89.60%
- GI% [20]: 94.6%
- GI% [21]: 120.6%
- GI% [22]: 92.00%
- GI% [23]: 87.7%
- GI% [24]: 128.60%
- GI% [25]: 84.70%
- GI% [26]: 84.90%
- GI% [27]: 87.70%
- GI% [28]: 108%
- GI% [29]: 92.50%
- GI% [30]: 97.60%
- GI% [31]: 109.50%
- GI% [32]: 94.3%
- GI% [33]: 129.40%
- GI% [34]: 96.20%
